Literature values as cited in publication PMC9516332 (Frontiers in Oncology, 2022).
Read-outs that look alike come from different tables or passages of the source.

Assays:
[1] = target: T1, panel of 255 wild-type kinases (Homo sapiens, UniProt Q9UQB9); settings: AurC kinase assay, 1 µmol/L single concentration, cited from earlier work
T1 sequence (Q9UQB9 1-309): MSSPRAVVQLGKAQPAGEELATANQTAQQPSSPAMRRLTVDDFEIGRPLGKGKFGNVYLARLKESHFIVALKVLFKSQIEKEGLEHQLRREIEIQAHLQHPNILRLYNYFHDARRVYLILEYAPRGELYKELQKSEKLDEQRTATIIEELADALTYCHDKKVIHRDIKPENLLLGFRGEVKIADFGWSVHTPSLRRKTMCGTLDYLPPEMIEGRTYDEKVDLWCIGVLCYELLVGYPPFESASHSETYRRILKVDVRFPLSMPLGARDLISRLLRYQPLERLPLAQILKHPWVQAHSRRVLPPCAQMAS

[2] = target: panel of 255 wild-type kinases (Homo sapiens, UniProt P42685); settings: kinase FRK, 1 µmol/L single concentration, cited from earlier work
[3] = target: T2, panel of 255 wild-type kinases (Homo sapiens, UniProt Q9H093); settings: NuaK2, 1 µmol/L single concentration, cited from earlier work
T2 sequence (Q9H093 1-628): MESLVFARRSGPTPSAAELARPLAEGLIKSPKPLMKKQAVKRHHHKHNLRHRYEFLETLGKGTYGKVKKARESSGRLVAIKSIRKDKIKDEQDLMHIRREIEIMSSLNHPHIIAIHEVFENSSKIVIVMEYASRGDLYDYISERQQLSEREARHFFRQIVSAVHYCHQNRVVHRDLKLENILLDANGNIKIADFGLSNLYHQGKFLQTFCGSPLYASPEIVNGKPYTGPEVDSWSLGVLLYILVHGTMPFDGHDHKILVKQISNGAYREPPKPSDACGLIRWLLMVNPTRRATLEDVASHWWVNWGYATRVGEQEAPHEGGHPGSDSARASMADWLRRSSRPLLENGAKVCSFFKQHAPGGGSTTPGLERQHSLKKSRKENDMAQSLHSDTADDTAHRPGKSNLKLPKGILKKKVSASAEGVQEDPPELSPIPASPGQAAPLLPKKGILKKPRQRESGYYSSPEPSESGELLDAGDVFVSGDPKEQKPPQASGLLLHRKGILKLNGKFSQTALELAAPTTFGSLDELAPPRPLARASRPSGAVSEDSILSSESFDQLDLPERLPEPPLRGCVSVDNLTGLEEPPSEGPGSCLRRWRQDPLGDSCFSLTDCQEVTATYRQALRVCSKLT

[4] = target: panel of 255 wild-type kinases (Homo sapiens, UniProt P11362); settings: kinase FGFR1, 1 µmol/L single concentration, cited from earlier work
[5] = target: panel of 255 wild-type kinases (Homo sapiens, UniProt Q14680); settings: MELK, 1 µmol/L single concentration, cited from earlier work
[6] = target: panel of 255 wild-type kinases (Homo sapiens, UniProt Q13164); settings: kinase Erk5, 1 µmol/L single concentration, cited from earlier work
[7] = target: panel of 255 wild-type kinases (Homo sapiens, UniProt P45984); settings: kinase JNK2, 1 µmol/L single concentration, cited from earlier work
[8] = target: panel of 255 wild-type kinases (Homo sapiens, UniProt P29376); settings: kinase LTK, 1 µmol/L single concentration, cited from earlier work
[9] = target: panel of 255 wild-type kinases (Homo sapiens, UniProt Q9P289); settings: MST4, 1 µmol/L single concentration, cited from earlier work
[10] = target: T3, panel of 255 wild-type kinases (Homo sapiens, UniProt Q96PF2); settings: kinase TSSK2, 1 µmol/L single concentration, cited from earlier work
T3 sequence (Q96PF2 1-358): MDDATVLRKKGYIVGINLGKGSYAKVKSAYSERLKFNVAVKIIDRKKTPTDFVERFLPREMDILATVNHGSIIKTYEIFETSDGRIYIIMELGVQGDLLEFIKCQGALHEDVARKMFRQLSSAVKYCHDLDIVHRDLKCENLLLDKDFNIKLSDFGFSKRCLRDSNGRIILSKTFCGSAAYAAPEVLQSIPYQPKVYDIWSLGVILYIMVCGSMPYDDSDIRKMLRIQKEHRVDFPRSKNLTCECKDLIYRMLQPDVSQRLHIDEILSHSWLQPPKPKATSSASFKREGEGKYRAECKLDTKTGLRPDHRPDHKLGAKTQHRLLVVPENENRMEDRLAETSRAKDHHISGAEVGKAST

[11] = target: panel of 255 wild-type kinases (Homo sapiens, UniProt P29317); settings: kinase EPHA2, 1 µmol/L single concentration, cited from earlier work
[12] = target: panel of 255 wild-type kinases (Homo sapiens, UniProt Q8N568); settings: kinase DCAMKL2, 1 µmol/L single concentration, cited from earlier work
[13] = target: panel of 255 wild-type kinases (Homo sapiens, UniProt O75582); settings: cited from earlier work
[14] = target: panel of 255 wild-type kinases (Homo sapiens, UniProt P54764); settings: kinase EPHA4, 1 µmol/L single concentration, cited from earlier work
[15] = ref DOI: 10.1158/1535-7163.MCT-18-0877
[16] = MSK1, 1 µmol/L single concentration, ref DOI: 10.1158/1535-7163.MCT-18-0877
[17] = ref DOI: 10.1371/journal.pone.0092146

Row | SMILES | %-inhibition AurC [1, 15] | %-inhibition at 1 µmol/L, FRK [2, 15] | %-inhibition, NuaK2 [3, 15] | %-inhibition at 1 µmol/L, FGFR1 [4, 15] | %-inhibition, MELK [5, 15] | %-inhibition at 1 µmol/L, Erk5 [6, 15] | %-inhibition at 1 µmol/L, JNK2 [7, 15] | %-inhibition at 1 µmol/L, LTK [8, 15] | %-inhibition, MST4 [9, 15] | %-inhibition at 1 µmol/L, TSSK2 [10, 15] | %-inhibition at 1 µmol/L, EPHA2 [11, 15] | %-inhibition at 1 µmol/L, DCAMKL2 [12, 15] | %-inhibition, MSK1 [13, 16] | %-inhibition at 1 µmol/L, EPHA4 [14, 15] | %-inhibition AurC [1, 17] | %-inhibition at 1 µmol/L, FRK [2, 17] | %-inhibition, NuaK2 [3, 17] | %-inhibition at 1 µmol/L, FGFR1 [4, 17] | %-inhibition, MELK [5, 17] | %-inhibition at 1 µmol/L, Erk5 [6, 17] | also measured
1 | C=CC(=O)N1CCC[C@@H](n2nc(-c3ccc(Oc4ccccc4)cc3)c3c(N)ncnc32)C1 [ibrutinib] | 7% | 100% | 6.37% | 71% | 8% | 4% | -2.83% | 2.76% | 1.46% | -4% | 7% | -9% | -1.18% | 13% |  |  |  |  |  |  | 
2 | CC(=O)Nc1cccc(-n2c(=O)n(C3CC3)c(=O)c3c(Nc4ccc(I)cc4F)n(C)c(=O)c(C)c32)c1 [trametinib] |  |  |  |  |  |  |  |  |  |  |  |  |  |  | 1% | -3% | 9% | -1.45% | -0.588% | -2.55% | %-inhibition at 1 µmol/L, JNK2 [7, 17]: -4.73%; %-inhibition at 1 µmol/L, LTK [8, 17]: -7%; %-inhibition, MST4 [9, 17]: -2.23%; %-inhibition at 1 µmol/L, TSSK2 [10, 17]: -1.73%; %-inhibition at 1 µmol/L, EPHA2 [11, 17]: -8.53%; %-inhibition at 1 µmol/L, DCAMKL2 [12, 17]: -2.4%; %-inhibition, MSK1 ([13]; MSK1, 1 µmol/L single concentration, ref DOI: 10.1371/journal.pone.0092146): -0.531%; %-inhibition at 1 µmol/L, EPHA4 [14, 17]: -5.3%
3 | Cc1cc(Nc2ncc(Cl)c(Nc3ccccc3S(=O)(=O)C(C)C)n2)c(OC(C)C)cc1C1CCNCC1 [ceritinib] | 3.47% | 85% | 43% | 11% | 4.5% | 94% | 16% | 100% | 4% | 75% | 5.69% | 85% | -1.09% | 1.33% |  |  |  |  |  |  | 
4 | C[C@@H](Oc1cc(-c2cnn(C3CCNCC3)c2)cnc1N)c1c(Cl)ccc(F)c1Cl [crizotinib] |  |  |  |  |  |  |  |  |  |  |  |  |  |  | 87% | 26% | 87% | 17% | 5.47% | 45% | %-inhibition at 1 µmol/L, JNK2 [7, 17]: -2.59%; %-inhibition at 1 µmol/L, LTK [8, 17]: 102%; %-inhibition, MST4 [9, 17]: 0.54%; %-inhibition at 1 µmol/L, TSSK2 [10, 17]: 0.896%; %-inhibition at 1 µmol/L, EPHA2 [11, 17]: 86%; %-inhibition at 1 µmol/L, DCAMKL2 [12, 17]: 49%; %-inhibition, MSK1 [13]: -0.641%; %-inhibition at 1 µmol/L, EPHA4 [14, 17]: 58%
5 | C=CC(=O)Nc1cc(Nc2nccc(-c3cn(C)c4ccccc34)n2)c(OC)cc1N(C)CCN(C)C [osimertinib] | 2.33% | 34% | 4% | 3.51% | 2.22% | 10% | -2.75% | 97% | 1.61% | -0.257% | 3.35% | -7% | -0.561% | 3.54% |  |  |  |  |  |  | 
